Results reported in patent US11571454B2, “Anticancer peptides that synergistically enhance chemotherapeutic potency” (The Penn State Research Foundation, priority 2017, dated 2023).
Marks after values point to notes of the source that are not given here.

Key:
[1] = test system: A549 (lung carcinoma) cells; assay: MTT cytotoxicity assay, A549; format: cell-based, human
Protocol: All cells were cultured using standard culture conditions at 37° C., 5% CO2, and 95% humidity. A549 (CCL-185), OVCAR-3 (HTB-161), T24 (HTB-4), and NCI/ADR-RES were cultured in RPMI-1640 supplemented with 10% v/v fetal bovine serum (FBS), 2 mM L-glutamine (L-Gln), 10,000 units penicillin/mL, 10 mg/mL streptomycin, and 25 μg/mL amphotericin B. HUVEC (PCS-100-010) cells were cultured in Vascular Cell Basal Media (PCS-100-030) supplemented with an Endothelial Cell Growth Kit-VEGF (PCS-100-041) and 10 μg/mL gentamycin in culture flasks coated with 0.1% gelatin by incubating at 37° C. for 15 min. NL20 (CRL-2503) cells were cultured in Ham's F12 supplemented with 1.5 g/L sodium bicarbonate, 2.7 g/L glucose, 2.0 mM L-glutamine, 0.1 mM nonessential amino acids, 0.005 mg/ml insulin, 10 ng/ml epidermal growth factor, 0.001 mg/ml transferrin, 500 ng/ml hydrocortisone and 4% fetal bovine serum, as advised by American Type Culture Collection (ATCC).
Viability was calculated by comparing to an untreated control.
All experiments were performed with n>6.
Cell viability experiments were completed n>6 in two independent experiments and analyzed using GraphPad Prism 8 to fit curves and calculate IC50 values using inhibitor vs. normalized response non-linear regression model. IC50 values are reported as mean values±standard deviation. […] Pore size frequency distribution was completed by ImageJ FIJI on 4 independent cells and n=30 pores from SEM images. UV-Vis OD600 and CD spectra are means of 5 and 3 replicates, respectively and reported as mean±standard deviation. Individual UV-Vis and CD spectra, as well as fluorescent confocal and TEM micrographs, shown are representative plots from three individual experiments. CD data is with a variance in ellipticity of 0.2 millidegrees at each wavelength. Relative fluorescence data calculated from fluorescent confocal images represents the average of 10 independent measurements±standard deviation. For spheroid volume analysis, a Kruskal-Wallis test and Dunn's multiple comparisons test was performed using GraphPad Prism 8.

[2] = Liposome disruption (OD600), cancer membrane model; conditions: OD600 and visual flocculates
Protocol: Liposomes were prepared by extrusion techniques according to previous methods. Briefly, all liposomes were prepared in 2×concentration (5 mM). Healthy and cancer liposomal mimicking membranes were prepared with 72:23:[…] phosphatidylcholine (POPC):phosphatidylethanolamine (DOPE):phosphatidylserine (POPS) lipids, respectively. The lipids dissolved in chloroform were mixed in proper molar proportions before being evaporated under a stream of argon. The lipid film was then dried completely by lyophilization overnight. […] The extruded liposomes were then dialyzed in 3500 MWCO dialysis cassettes against water. Parallel optical density experiments were conducted measuring the absorbance at 600 nm (OD600) to track the kinetics and specificity of membrane disruption. Measurements were taken every 30 seconds for the first 10 min., followed by measurements every minute until 15 min.

[3] = test system: OVCAR-3 cells; assay: TMRE-staining flow cytometry (mitochondrial transmembrane potential); format: cell-based, human; conditions: 48 hour incubation, varying concentrations
Protocol: (5 μM). Cells were incubated for 30 min. with 200 nM TMRE, washed twice with PBS, and analyzed for fluorescence by flow cytometry on a BD […] (BD Biosciences, Franklin Lakes, N.J.).

[4] = test system: cleaved caspase 3 in OVCAR-3 cells; assay: Western blot of cleaved caspase 3; format: cell-based, human; conditions: 1× and 2× IC50; activation at 48 hours
Protocol: For western blots, OVCAR-3 cells were first seeded at 2.5×10^5 cells/well in a 6 well plate and allowed to adhere overnight. Cells were then treated in 5% FBS media with 1×IC50 and 2×IC50, with untreated controls of media alone. Following 2 or 48 hours of treatment, the whole-cell protein lysates were prepared in RIPA buffer (50 mM Tris.NaOH at pH 7.4, 150 mM NaCl, 1% IGEPAL-CA630 [octylphenoxy poly(ethyleneoxy)ethanol], 0.5% sodium deoxycholate, 0.1% SDS, 2 mM EDTA, protease/phosphatase inhibitors) by first scraping the bottom of the well and subsequently briefly sonicated. The lysates were centrifuged to clear cellular debris, separated by 12% SDS-PAGE, and transferred to a 0.2 μm Nitrocellulose Membrane using the Bio-Rad Trans-Blot Turbo transfer machine (Bio-Rad, Hercules, Calif., USA) according to the manufacturer's protocols. The blot was incubated in 5% Immunoanalytical Grade Non-fat Dry Milk for 1 hour, followed by incubation with antibodies against cleaved caspase-3 (1:1000) or actin (1:1000) at 4° C. for 16 hours. The blots were then incubated with 1:2000 dilution in 1×BSA of anti-mouse or anti-rabbit antibodies for 1 hour before washing with TBST three times for 15 min. and developing using Pierce ECL system according to the manufacturer's protocol.

[5] = test system: polymicrobial panel (six bacterial lines); assay: Antimicrobial activity against polymicrobial panel; format: cell-based
[6] = test system: human umbilical vein endothelial cells (HUVEC); conditions: read-out: Healthy (IC50, μM) HUVEC; 48 hours treatment, MTT
[7] = test system: MS S. aureus; conditions: 24 hours, Gram Positive
[8] = test system: MR S. aureus; conditions: 24 hours, Gram Positive
[9] = test system: E. coli; conditions: 24 hours, Gram Negative
[10] = test system: T24 (urinary bladder transitional cell carcinoma) cells; assay: MTT cytotoxicity assay, T24

## H-KRWHWWRRHWVVW-NH2 [MAD1]
[1]; 48 hours treatment, MTT, read-out: Cancerous (IC50, μM) A549
  IC50: 36.2 µM
[1]; IC50-HUVEC/IC50-A549
  Therapeutic Index A549: 2.8
[1]; result in words
  cytotoxic activity against A549: moderate activity
[2]
  disruption/lysis of cancer membrane liposomes: significant membrane destabilization and subsequent lysis
[3]
  mitochondrial integrity (TMRE fluorescence): generally unchanged
[4]
  cleaved caspase 3 (western blot): presence of cleaved caspase 3
[5]
  antimicrobial activity against polymicrobial panel: bactericidal activity
[6]
  IC50: > 100 µM
[7]
  MIC (μM) MS S. aureus: >80^a μM
[8]
  MIC (μM) MR S. aureus: >80^a μM
[9]
  MIC (μM) E. coli: 25 µM
[10]; read-out: Cancerous (IC50, μM) T24, 48 hours treatment, MTT
  IC50: > 100 µM
[10]; result in words
  cytotoxic activity towards T24: inactive
